# Experimental data reported in US9283236B2 (HUMAN MATRIX SCIENCES, LLC, priority 2008, dated 2016).
# Entries after “also recorded” stand apart in the source; their conditions may differ.
# How the values were obtained:
# [1] = test system: human fetal cardiac fibroblasts; assay: Immunostaining of elastic fibers with anti-elastin antibody; format: cell-based; conditions: 10 μM PP2, 1 hour pretreatment, 50 nM aldosterone
# Method: (§1) At the end of the 72-hour incubation period with the indicated treatment, confluent cultures were either fixed in ice-cold 100% methanol at −20° C. (for elastin staining) or in 4% paraformaldehyde at room temperature (for collagen staining) for 30 minutes and blocked with 1% normal goat serum for 1 hour at room temperature. The cultures were then incubated for 1 hour with 10 μg/ml polyclonal antibody to tropoelastin or with 10 μg/ml polyclonal antibody to collagen type I. All cultures were then incubated for an additional hour with fluorescein-conjugated goat anti-rabbit or with fluorescein-conjugated rabbit anti-goat secondary antibodies to detect elastin and collagen type I staining, respectively. Nuclei were counterstained with propidium iodide. Secondary antibody alone was used as a control. All of the cultures were then mounted in Elvanol and examined with a Nikon Eclipse E1000 microscope attached to a cooled charge-coupled device camera (Retiga EX; QImaging, Surrey, BC, Canada) and a computer-generated video analysis system (Image-Pro Plus software; Media Cybernetics, Silver Spring, Md.).
# Immunostaining—At the end of the 72-hour incubation period with the indicated treatment, confluent cultures were fixed in cold 100% methanol at −20° C. […]
# [2] = test system: human fetal cardiac fibroblasts; assay: Quantitative assay of [3H]valine-labeled insoluble elastin; format: cell-based; conditions: 72 hours
# [3] = test system: human fetal cardiac fibroblasts; assay: One-step RT-PCR of elastin mRNA in cardiac fibroblast cultures; format: cell-based
# c-Src = assay: Western blot of phospho-c-Src (Tyr416); format: cell-based, human
# Method: (§2) Western blotting—Confluent fetal human cardiac fibroblast cultures were exposed with or without the treatment specified for the indicated time points. At the end of each experiment cells were lysed using an RIPA buffer (50 mM Tris.HCl, pH 7.4; 150 mM NaCl; 1 mM EDTA; 10 mM NaF; 1% Triton X-100; 0.1% SDS; 1% Na deoxycholate) containing a cocktail of antiproteases (20 μg/ml leupeptin, 10 μg/ml aprotinin, 0.1 mM PMSF, 1 mM DTT) and antiphosphates ([…] orthovanadate, 2 μg/ml pepstatin). Then 40-60 μg of protein extract was resuspended in sample buffer (0.5 M Tris.HCl, pH 6.8; 10% SDS; 10% glycerol; 4% 2-β-mercaptoethanol; and 0.05% bromophenol blue), and the mixture was boiled for 5 minutes. Protein lysates were resolved by precast SDS-PAGE gel (4-12% gradient), transferred to nitrocellulose membranes, blocked for an hour, and then immunoblotted with polyclonal anti-MR antibody, anti-phospho-c-Src (Tyr416) antibody, anti-phospho-Akt (Ser473) antibody, anti-Gα13 (goat) antibody, anti-SCAP2 antibody, or with buffer (TBS-T) at 4° C. overnight. All blots were then incubated with the appropriate HRP-conjugated secondary antibodies for an hour and examined using the enhanced chemiluminescence detection system. Blots were stripped and reprobed using specified antibodies. […] The degree of expression or phosphorylation of immunodetected signaling molecules was measured by densitometry.
# Akt = assay: Western blot of phospho-Akt (Ser473); format: cell-based, human
# Method: as §2
# Gα13 and c-Src = assay: Co-immunoprecipitation of Gα13 and c-Src; format: cell-based, human
# [4] = test system: human fetal cardiac fibroblasts; assay: Cytotoxic effects of supraphysiological aldosterone in cardiac fibroblast cultures; format: cell-based; conditions: aldosterone 100 nmol/L and 1 μmol/L
# [5] = test system: human fetal cardiac fibroblasts; assay: Quantitative assay of [3H]valine-labeled immunoprecipitable tropoelastin; format: cell-based; conditions: 1 to 50 nmol/L, 72 hours, vs untreated
# Method: Fetal human cardiac fibroblasts were grown to confluence in 35-mm culture dishes (100,000 cells/dish) in quadruplicate. […] Cultures were incubated for 72 hours, and the soluble and insoluble elastin were assessed separately in each dish. The cells were extensively washed with phosphate-buffered saline, and the soluble proteins present in the intracellular compartments were extracted overnight at 4° C. with 0.1 mol/L acetic acid in the presence of proteinase inhibitors. After centrifugation, the supernatants were precleaned by 30-minute incubation with 50 μl of 4% protein A-beaded agarose, and then 500 μl of the supernatant was incubated with 5 μg of polyclonal antibody to tropoelastin for 2 hours and subsequently with 50 μl of 4% protein A-beaded agarose for 3 hours at 4° C. The protein A-containing beads were sedimented by centrifugation, washed with immunoprecipitation buffer, mixed with scintillation fluid, and counted. […] The resulting pellets containing the insoluble elastin were then solubilized by boiling in 200 μl of 5.7 N HCl for 1 hour, and the aliquots were mixed in scintillation fluid and counted. […] Final results reflecting amounts of metabolically labeled insoluble elastin in individual cultures were normalized per their DNA content and expressed as counts per minute per 1 μg of DNA.
# [6] = test system: human fetal cardiac fibroblasts; assay: One-step RT-PCR of collagen type I mRNA in cardiac fibroblast cultures; format: cell-based; conditions: 1 to 50 nmol/L, 24 hours, normalized to GAPDH mRNA, vs untreated control
# [7] = test system: human fetal cardiac fibroblasts; assay: Immunostaining of collagen type I fibers in confluent cultures; format: cell-based; conditions: 1 to 50 nmol/L, 72 hours
# [8] = test system: adult human cardiac fibroblasts; assay: Anti-elastin immunostaining in adult cardiac fibroblasts; format: cell-based; conditions: 1 to 50 nmol/L, 72 hours
# Method: as §1, with “Control cell cultures received an equal amount of the solvent vehicle. […] ScienCell (San Diego, Calif.). At” for “At”, “-20°” for “−20°”, “(for elastin staining) or in 4% paraformaldehyde at room temperature (for collagen staining) for 30 minutes and blocked with 1% normal goat serum for 1 hour at room temperature.” left out, “E1000” left out
# IGF-IR = IGF-IR immunoprecipitation and anti-phosphotyrosine blot; format: cell-based, human
# Method: Cells were lysed using an radioimmunoprecipitation assay buffer [50 mmol/L Tris-HCl, pH 7.4, 150 mmol/L NaCl, 1 mmol/L ethylenediamine tetraacetic acid, 10 mmol/L NaF, 1% Triton X-100, 0.1% sodium dodecyl sulfate, 1% sodium deoxycholate containing a cocktail of antiproteases (20 μg/ml leupeptin, 10 μg/ml aprotinin, 0.1 mmol/L phenylmethylsulfonyl fluoride, and 1 mmol/L dithiothreitol) and antiphosphates ([…] orthovanadate and 2 μg/ml pepstatin)], and 300 μg of protein extract was incubated with an antibody against IGF-IRβ for 1 hour at 4° C., followed by the addition of 4% protein A-beaded agarose left overnight, as previously described. The resulting protein-antibody conjugate was centrifuged at 4° C. and washed four times with phosphate-buffered saline. The final pellet was resuspended in sample buffer (0.5 mol/L Tris-HCl, pH 6.8, 10% sodium dodecyl sulfate, 10% glycerol, 4% 2-B-mercaptoethanol, and 0.05% bromphenol blue), and the mixture was boiled for 5 minutes. Proteins were resolved by 12% sodium dodecyl sulfate-polyacrylamide gel electrophoresis, transferred to nitrocellulose membranes, and then immunoblotted with anti-p-Tyr or anti-IGF-IR antibodies. The degree of expression or phosphorylation of immunodetected signaling molecules was measured by densitometry.
# At the end of each experiment the cells were lysed as specified above, and 300 μg of protein extract were then precleared for 1 hour with normal rabbit agarose conjugated-IgG at 4° C. and incubated with rabbit polyclonal antibodies against IGF-IR-β, c-Src, or with Gα13 for 1 hour at 4° C., followed by the addition of 4% protein A-beaded agarose and left overnight. The resulting protein-antibody conjugate was centrifuged at 4° C. and washed four times with PBS. The final pellet was resuspended in sample buffer, and the proteins were resolved. Following immunoprecipitation of IGF-IR-β, the membrane was immunoblotted using monoclonal anti-p-Tyr antibody, stripped, and reprobed using anti-IGF-IR-β. Following immunoprecipitation of c-Src, the membranes were immunoblotted using polyclonal goat antibodies against anti-Gα13, while those immunoprecipitated with anti-Gα13 were developed with monoclonal anti-c-Src antibody. Blots were stripped and re-probed for equal loading.
# The degree of expression or phosphorylation of immunodetected signaling molecules was measured by densitometry.
# [9] = test system: adult human cardiac fibroblasts; assay: One-step RT-PCR of elastin mRNA in adult cardiac fibroblasts; format: cell-based; conditions: 1 to 50 nmol/L, 24 hours, normalized to GAPDH mRNA
# [10] = test system: rat myocardial infarction model; assay: Rat myocardial infarction model, postinfarction scar; format: in vivo; conditions: treated during the postinfarction period, vs vehicle-treated animals
# [11] = 10 μM PP2 1 hour preincubation or 72 hour Gα13 siRNA transfection
# [12] = 50 nM aldosterone, 30 minutes to 16 hours
smiles,measurement,setting,value
CC(C)(C)n1nc(-c2ccc(Cl)cc2)c2c(N)ncnc21 [PP2],effect on aldosterone-induced upregulation in elastic fiber production,[1],abolished an increase in elastin mRNA levels and the consequent upregulation in elastic fiber production
same,effect on aldosterone-induced increase in insoluble elastin production,[2]; agent added 1 hour before aldosterone (50 nM or 1 to 50 nmol/L),eliminated the aldosterone-induced increase in the net deposition of insoluble elastin
same,effect on aldosterone-induced increase in elastin mRNA levels,"[3]; agent added 1 hour (CT04 2 hours) before aldosterone, 24 hours",abolished an increase in elastin mRNA levels
same,effect on aldosterone-induced c-Src phosphorylation,c-Src; [11],abolished this effect
same,effect on aldosterone-induced increase in phosphorylation of Akt,Akt; [11],is indeed eliminated; also recorded: eliminates this effect
C[C@]12CCC(=O)C=C1CC[C@@H]1[C@@H]2[C@@H](O)C[C@]2(C=O)[C@@H](C(=O)CO)CC[C@@H]12 [aldosterone],[3H]valine incorporation into insoluble elastin,"[2]; 1 to 50 nmol/L, vs untreated",proportional increase; also recorded: incorporate significantly more [^3H]valine into extracellular insoluble elastin
same,time at which the Gα13/c-Src interaction was most evident,"Gα13 and c-Src; 50 nM aldosterone for 1, 5 or 10 minutes",5 min
same,interaction between c-Src and Gα13,Gα13 and c-Src; vs untreated controls,increases the interaction between Gα13 and c-Src
same,cytotoxic effects,[4],did not produce any cytotoxic effects
same,time at which tropoelastin mRNA begins to significantly increase,[3]; [12],1 h
same,time of maximum tropoelastin mRNA level,[3]; [12],3 to 6 h
same,elastin mRNA transcript levels,"[3]; 1 to 50 nmol/L, 24 hours, normalized to GAPDH mRNA, vs untreated control","heightened elastin mRNA levels, in a dose-dependent manner; also recorded: dose-dependently increased elastin mRNA transcript levels"
same,[3H]valine-labeled tropoelastin,[5],proportional increase; also recorded: up to approximately three times more
same,collagen type I mRNA transcript levels,[6],significant increase in the steady-state level of collagen type I mRNA; also recorded: significantly increased collagen type I mRNA transcript levels
same,phosphorylation of c-Src on Tyr416,"c-Src; 50 nM aldosterone, 10 minutes",increased phosphorylation of c-Src on Tyr416; also recorded: leading to activation of c-Src
same,deposition of collagen fibers,[7],subsequent deposition of collagen fibers
same,"number of immunodetectable elastic fibers, adult cardiac fibroblasts",[8],significantly increased the number of immunodetectable elastic fibers
same,basal phosphorylation of Akt,"Akt; 50 nM aldosterone, 10 minutes",significant increase in the basal phosphorylation of Akt
same,"IGF-IR tyrosine phosphorylation, aldosterone together with IGF-I vs IGF-I alone","IGF-IR; 50 nmol/L aldosterone with 10, 25 or 50 ng/ml IGF-I, serum-free, 10 minutes",exhibit higher levels of IGF-IR tyrosine phosphorylation than their respective counterparts treated with the same doses of IGF-I alone
same,tyrosine phosphorylation of the IGF-IR,"IGF-IR; 10-minute exposure, 10% fetal bovine serum, aldosterone or BSA-conjugate 50 nM, IGF-I 100 ng/ml",transient increase in tyrosine phosphorylation of the IGF-IR above basal level; also recorded: produced a transient increase in tyrosine phosphorylation of the IGF-IR in control cultures; also recorded: significant increase in tyrosine phosphorylation of IGF-IR over basal levels
same,"tyrosine phosphorylation of the IGF-IR, dependence on serum",IGF-IR; presence vs absence of fetal bovine serum,induced a similar effect only in the presence of serum
same,"elastin mRNA transcript levels, adult cardiac fibroblasts",[9],dose-dependently increased elastin mRNA transcript levels
COC(=O)[C@@H]1CC2=CC(=O)CC[C@]2(C)[C@@]23O[C@@H]2C[C@@]2(C)[C@@H](CC[C@@]24CCC(=O)O4)[C@H]13 [eplerenone],postinfarction scar composition,[10],produced scars with abundant elastic fibers
